Our source for the IC50 values is patent US20240101548A1, “HYDROXAMATE COMPOUND, PREPARATION METHOD THEREFOR AND APPLICATION THEREOF” (SHENZHEN CHIPSCREEN BIOSCIENCES CO., LTD., priority 2020, published 2024).

What all share (type): cell-based, human
Assay [1] has as its system IL-10-induced JAK1/TYK2 signal pathway. The assay can be described thus: IL-10-induced JAK1/TYK2 signal pathway STAT3-Luc reporter gene assay in U2OS cells. As to conditions: read-out: Half inhibition dose (IC50) on IL-10-induced JAK1/TYK2 signal pathway. In a few lines: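 Luciferase read-out (560 nm) corrected by GFP signal (Ex485/Em520) gives IL-10 pathway activity, and IC50 is derived from inhibition rates. Cells were U2OS transfected with IL-10R1 plus STAT3-Luc reporter, pretreated 6 h with 0.1–300 nM compound, then stimulated 24 h with IL-10 at 10 ng/mL.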

Assay [2] deals with IL-2-induced JAK1/JAK3 signal pathway. In words: IL-2-induced proliferation of KHYG-1 cells (JAK1/JAK3 signal). The note with it: read-out: Inhibition activity IC50 on IL-2-induced JAK1/JAK3 signal pathway. The method in brief:
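Controls were wells lacking both compound and cytokine (0%) and compound-free IL-2 wells (100%). C50 was calculated from inhibition rates across doses.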

In assay [3] the test system is EPO-induced JAK2 signal pathway. In words: EPO-induced proliferation of UT-7 cells (JAK2 signal). The note with it: UT-7 cell proliferation, EPO 10 ng/mL, 72 hours, read-out: Inhibition activity IC50 on EPO-induced JAK2 signal pathway. The method in brief: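 […] was derived from inhibition rates across doses, scaled between wells lacking compound and cytokine (0) and EPO without compound (100), using alamarBlue fluorescence at Ex530/Em590. Compound (final 0-10000 nM) and 10 ng/mL EPO were given to UT-7 cells at 15000 per well for 72 h at 37° C.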

Setting [4] is: Homo sapiens, U2OS, U2OS cells, STAT3-Luc reporter, IL-10 10 ng/mL.
[5] abbreviates: Homo sapiens, KHYG-1 cell proliferation, IL-2 10 ng/mL, 72 hours.
The mark [6] stands for this setting: Homo sapiens, U2OS cells, STAT3-Luc reporter, IL-10 10 ng/mL.

Like-named read-outs stand apart in the source and are kept apart here.

For the compound `C#Cc1ccc(Nc2cc(Nc3cccc(F)n3)ncc2C(=O)NOC)c(N(C)S(C)(=O)=O)c1` [Example 19], the IC50 in assay [1] (setting [4]) was 0.00106 µM; in assay [2] (setting [5]), > 10 µM; in assay [3] (Homo sapiens, UT7), > 10 µM.
In the case of `CONC(=O)c1cnc(NC(=O)C2CC2)cc1Nc1ccc(F)cc1N(C)S(C)(=O)=O` [Example 70, 6-(cyclopropylcarboxamido)-4-((4-fluoro-2-(N-methylmethanesulfonamido)phenyl)amino)-N-methoxy nicotinamide], the IC50 in assay [1] (setting [6]) is 0.00244 µM; in assay [2] (setting [5]) it was > 10 µM; in assay [3] (Homo sapiens, UT7), > 10 µM.
Turning to `CCONC(=O)c1cnc(Nc2cc(C)nc(C)n2)cc1Nc1ccc(F)cc1N(C)S(=O)(=O)C1CC1` [Example 183], the IC50 was 0.000796 µM in assay [1] (setting [4]); > 10 µM in assay [2] (setting [5]); > 10 µM in assay [3] (Homo sapiens, UT7).
As for `CCONC(=O)c1cnc(Nc2ccn(C)n2)cc1Nc1ccc(C2CC2)cc1N(C)S(C)(=O)=O` [Example 160, 4-((4-cyclopropyl-2-(N-methylmethanesulfonamido)phenyl)amino)-N-ethoxy-6-((1-methyl-1H-pyrazol-3-yl)amino)nicotinamide], the IC50 in assay [1] (setting [4]) is 0.000442 µM; in assay [2] (setting [5]), > 10 µM; in assay [3] (Homo sapiens, UT7), > 10 µM.
`CCONC(=O)c1cnc(Nc2cc(C)nc(C)n2)cc1Nc1cc(F)c(C)cc1N(C)S(C)(=O)=O` [Example 191, 6-((2,6-dimethylpyrimidin-4-yl)amino)-N-ethoxy-4-((5-fluoro-4-methyl-2-(N-methylmethanesulfonamido)phenyl)amino)nicotinamide]: the IC50 was 0.000653 µM in assay [1] (setting [4]); > 10 µM in assay [2] (setting [5]); > 10 µM in assay [3] (Homo sapiens, UT7).
Turning to `CCONC(=O)c1cnc(Nc2cccc(C)n2)cc1Nc1ccc(C2CC2)cc1N(C)S(C)(=O)=O` [Example 224, 4-((4-cyclopropyl-2-(N-methylmethanesulfonamido)phenyl)amino)-N-ethoxy-6-((6-methylpyridin-2-yl)amino)nicotinamide], the IC50 is 0.000177 µM in assay [1] (U2OS cells, STAT3-Luc reporter, IL-10 10 ng/mL); > 10 µM in assay [2] (KHYG-1 cell proliferation, IL-2 10 ng/mL, 72 hours); > 10 µM in assay [3].
With `CCONC(=O)c1cnc(Nc2ccc(C3CC3)cn2)cc1Nc1ccc(OC)cc1N(C)S(C)(=O)=O` [Example 155, 6-((5-cyclopropylpyridin-2-yl)amino)-N-ethoxy-4-((4-methoxy-2-(N-methylmethanesulfonamido)phenyl)amino)nicotinamide], the IC50 in assay [1] (setting [4]) was 0.00179 µM; in assay [2] (setting [5]), > 10 µM; in assay [3] (Homo sapiens, UT7), > 10 µM.
For `C#Cc1ccc(Nc2cc(Nc3cccc(F)n3)ncc2C(=O)NOCC)c(N(C)S(C)(=O)=O)c1` [Example 143, N-ethoxy-4-((4-ethynyl-2-(N-methylmethanesulfonamido)phenyl)amino)-6-(6-fluoropyridin-2-ylamino)nicotinamide], the IC50 in assay [1] (setting [4]) is 0.000496 µM; in assay [2] (setting [5]), > 10 µM; in assay [3] (Homo sapiens, UT7), > 10 µM.
Turning to `CCONC(=O)c1cnc(NC(=O)C2CC2)cc1Nc1ccccc1N(C)S(C)(=O)=O` [Example 90, 6-(cyclopropylcarboxamido)-N-ethoxy-4-((2-(N-methylmethanesulfonamido)phenyl)amino)nicotinamide], the IC50 was 0.0014 µM in assay [1] (setting [4]); > 10 µM in assay [2] (setting [5]); > 10 µM in assay [3] (Homo sapiens, UT7).
For the compound `CCONC(=O)c1cnc(Nc2ccc(F)cn2)cc1Nc1ccc(N2CCOCC2)cc1N(C)S(C)(=O)=O` [Example 130], the IC50 in assay [1] (setting [4]) is 0.000802 µM; in assay [2] (setting [5]), > 10 µM; in assay [3] (Homo sapiens, UT7), > 10 µM.
For the compound `CNC(=O)c1cnc(Nc2ccc(F)cn2)cc1Nc1ccccc1N(C)S(C)(=O)=O` [Example 100, 6-((5-fluoropyridin-2-yl)amino)-N-methyl-4-((2-(N-methylmethanesulfonamido)phenyl)amino)nicotinamide], the IC50 was 0.017 µM in assay [1] (setting [4]); > 10 µM in assay [2] (setting [5]); > 10 µM in assay [3] (Homo sapiens, UT7).
In the case of `[2H]C([2H])([2H])Oc1c(Nc2cc(Nc3cc(C)nc(C)n3)ncc2C(=O)NOCC)cccc1-c1ncc(F)cn1` [Example 273, 6-((2,6-dimethylpyrimidin-4-yl)amino)-N-ethoxy-4-((3-(5-fluoropyrimidin-2-yl)-2-(methoxy-d3)phenyl)amino)nicotinamide], the IC50 is 0.00219 µM in assay [1] (setting [4]); > 10 µM in assay [2] (setting [5]); > 10 µM in assay [3] (Homo sapiens, UT7).
Take `CCONC(=O)c1cnc(Nc2ccncn2)cc1Nc1ccc(C2CC2)cc1N(C)S(=O)(=O)C1CC1` [Example 190, 4-((4-cyclopropyl-2-(N-methylcyclopropylsulfonamido)phenyl)amino)-N-ethoxy-6-(pyrimidin-4-ylamino)nicotinamide]: the IC50 in assay [1] (setting [4]) is 0.00273 µM; in assay [2] (setting [5]) it was > 10 µM; in assay [3] (Homo sapiens, UT7), > 10 µM.
On to `CONC(=O)c1cnc(Nc2cc(C)nc(C)n2)cc1Nc1ccc(C2CC2)cc1N(C)S(C)(=O)=O` [Example 112], for which the IC50 in assay [1] (setting [4]) was 0.000711 µM; in assay [2] (setting [5]) it was > 10 µM; in assay [3] (Homo sapiens, UT7) it was > 10 µM.
For the compound `CONC(=O)c1cnc(Nc2cccc(C)n2)cc1Nc1ccccc1N(C)S(C)(=O)=O` [Example 102, N-methoxy-4-((2-(N-methylmethanesulfonamido)phenyl)amino)-6-((6-methylpyridin-2-yl)amino)nicotinamide], the IC50 in assay [1] (setting [4]) was 0.000623 µM; in assay [2] (setting [5]), > 10 µM; in assay [3] (Homo sapiens, UT7) it was > 10 µM.
Take `CCONC(=O)c1cnc(Nc2cccc(C)n2)cc1Nc1ccc(-c2ccnn2C)cc1OC` [Example 222, N-ethoxy-4-((2-methoxy-4-(1-methyl-1H-pyrazol-5-yl)phenyl)amino)-6-((6-methylpyridin-2-yl)amino)nicotinamide]: the IC50 in assay [1] (setting [4]) was 0.00109 µM; in assay [2] (setting [5]), > 10 µM; in assay [3] (Homo sapiens, UT7) it was > 10 µM.
As for `CCONC(=O)c1cnc(Nc2cc(C)nc(C)n2)cc1Nc1ccc(C)cc1N(C)S(=O)(=O)CC` [Example 203, 6-((2,6-dimethylpyrimidin-4-yl)amino)-N-ethoxy-4-((4-methyl-2-(N-methylethylsulfonamido)phenyl)amino)nicotinamide], the IC50 in assay [1] (setting [4]) is 0.000383 µM; in assay [2] (setting [5]) it was > 10 µM; in assay [3] (Homo sapiens, UT7), > 10 µM.
As for `[2H]C([2H])([2H])Oc1c(Nc2cc(Nc3cc(C)nc(C)n3)ncc2C(=O)NOCC)cccc1-c1ncccn1` [Example 279, 6-((2,6-dimethylpyrimidin-4-yl)amino)-N-ethoxy-4-((2-(methoxy-d3)-3-(pyrimidin-2-yl)phenyl)amino)nicotinamide], the IC50 in assay [1] (Homo sapiens, U2OS) was 0.00053 µM; in assay [2] (setting [5]), > 10 µM; in assay [3] (Homo sapiens, UT7) it was > 10 µM.
In the case of `CCONC(=O)c1cnc(Nc2cc(C)nc(C)n2)cc1Nc1ccc(Cl)cc1N(C)S(=O)(=O)CC` [Example 187, 4-((4-chloro-2-(N-methylethylsulfonamido)phenyl)amino)-6-((2,6-dimethylpyrimidin-4-yl)amino)-N-ethoxynicotinamide], the IC50 was 0.000906 µM in assay [1] (setting [4]); > 10 µM in assay [2] (setting [5]); > 10 µM in assay [3] (Homo sapiens, UT7).
On to `CCONC(=O)c1cnc(Nc2cccc(F)n2)cc1Nc1ccccc1NS(=O)(=O)C1CC1` [Example 116, 4-((2-(cyclopropylsulfonamido)phenyl)amino)-N-ethoxy-6-((6-fluoropyridin-2-yl)amino)nicotinamide], for which the IC50 is 0.000471 µM in assay [1] (setting [6]); > 10 µM in assay [2] (Homo sapiens, KHYG-1, 72 h); > 10 µM in assay [3] (Homo sapiens, UT7).
Turning to `CONC(=O)c1cnc(Nc2cccc(F)n2)cc1Nc1ccc(Cl)cc1N(C)S(C)(=O)=O` [Example 47, 4-((4-chloro-2-(N-methylmethanesulfonamido)phenyl)amino)-6-((6-fluoropyridin-2-yl)amino)-N-methoxy nicotinamide], the IC50 in assay [1] (setting [4]) was 0.00134 µM; in assay [2] (setting [5]) it was > 10 µM; in assay [3] (Homo sapiens, UT7) it was > 10 µM.
With `C#Cc1ccc(Nc2cc(Nc3ccc(OC)cn3)ncc2C(=O)NOC)c(N(C)S(C)(=O)=O)c1` [Example 18, 4-((4-ethynyl-2-(N-methylmethanesulfonamido)phenyl)amino)-N-methoxy-6-((5-methoxypyridin-2-yl)amino)nicotinamide], the IC50 in assay [1] (setting [6]) is 0.000784 µM; in assay [2] (setting [5]), > 10 µM; in assay [3] (Homo sapiens, UT7), > 10 µM.
For `CCONC(=O)c1cnc(Nc2ccnc(C)n2)cc1Nc1cccc(-c2ncc(C)cn2)c1OC` [Example 240, N-ethoxy-4-((2-methoxy-3-(5-methylpyrimidin-2-yl)phenyl)amino)-6-((2-methylpyrimidin-4-yl)amino)nicotinamide], the IC50 in assay [1] (setting [4]) is 0.000258 µM; in assay [2] (setting [5]), > 10 µM; in assay [3] (Homo sapiens, UT7), > 10 µM.
